Legend:
ob/ob and db/db mice = conditions: following 8 weeks of administration; cited from earlier work
[1] = target: recombinant human AMPK complex 1 (containing α1β1γ1) (Homo sapiens, UniProt Q13131+Q9Y478); experiment: In vitro AMPK activation assay ([…]); type: biochemical; conditions: recombinant human AMPK complex 1 (α1β1γ1); for Emax: basal activity subtracted, expressed as % maximum AMP activation; for EC50: read-out: EC50
Procedure: The recombinant human AMPK complex 1 (containing α1β1γ1) was obtained from baculovirus expression system. Recombinant viruses were generated by cotransfection of AMPK/pBacPak9 clones with Baculogold baculovirus DNA (Pharmingen) in spodoptera frugiperda 21 cells according to the manufacturer's instructions. Each round of virus amplification was performed for 5 days in Grace's medium containing 10% serum. Virus that had been subjected to three rounds of amplification was used for all protein production procedures. To express the AMPK complex, sf21 cells were adapted to serum free medium (SF900 II, Invitrogen) by sequential dilution from serum containing stocks into SF900II medium and maintained in shaker flasks at 90 rpm at 27° C. The recombinant AMPK enzyme complex was produced by triple infection, one recombinant virus for each of the subunits, in sf21 cells under serum free conditions. Cells were infected in log phase, 1×10^6 cells/ml, at a multiplicity of infection of ˜5. Cells were harvested by centrifugation at 10,000×g for 15 minutes after 72 hours of infection with viruses. The insect cell pellet from 2 liters of culture was resuspended in 50 ml lysis buffer (20 mM Tris-HCl, 50 mM NaCl, 50 mM NaF, 30 mM Na PPi, 0.25 M sucrose, 10 mM ZnCl2, 2 mM DTT, 0.4 mg/ml digitonin) and subjected to two cycles of freeze-thaw lysis in a dry-ice ethanol bath. Insoluble material was removed by centrifugation at 10,000×g and the supernatant was fractionated with use of polyethylene glycol (PEG). The protein fraction precipitating between 2.5 and 6% PEG was used for further purification using a Blue-Sepharose step (Zhou et al, J. Clin. Invest. 108, 1167-1174, 2001).
The total in vitro AMPK activation assay volume is 50 μl in a 96-well plate. The reaction mixture contained 100 μM ATP (0.5 μCi ^33P-ATP per reaction), and 50 μM SAMS ([…]) in a buffer (20 mM HEPES, pH 7.0, 5 mM MgCl2, 0.01% Brij35). The reaction was initiated with addition of the enzyme. After 30-minute incubation at 30° C., the reaction was stopped by addition of 80 μl 1% H3PO4. Aliquots (100 μl) were transferred to 96-well MultiScreen plates (MAPHNOB50; Millipore Corp., Bedford, Mass., USA). The plate was washed three times with 1% H3PO4 followed by detection in a Top-count. The counts per minute from the basal activity (the reaction without activator) was subtracted from each well and the data were expressed as % maximum AMP activation followed by EC50 calculation.

Sequence of recombinant human AMPK complex 1 (containing α1β1γ1) (Q13131 whole entry): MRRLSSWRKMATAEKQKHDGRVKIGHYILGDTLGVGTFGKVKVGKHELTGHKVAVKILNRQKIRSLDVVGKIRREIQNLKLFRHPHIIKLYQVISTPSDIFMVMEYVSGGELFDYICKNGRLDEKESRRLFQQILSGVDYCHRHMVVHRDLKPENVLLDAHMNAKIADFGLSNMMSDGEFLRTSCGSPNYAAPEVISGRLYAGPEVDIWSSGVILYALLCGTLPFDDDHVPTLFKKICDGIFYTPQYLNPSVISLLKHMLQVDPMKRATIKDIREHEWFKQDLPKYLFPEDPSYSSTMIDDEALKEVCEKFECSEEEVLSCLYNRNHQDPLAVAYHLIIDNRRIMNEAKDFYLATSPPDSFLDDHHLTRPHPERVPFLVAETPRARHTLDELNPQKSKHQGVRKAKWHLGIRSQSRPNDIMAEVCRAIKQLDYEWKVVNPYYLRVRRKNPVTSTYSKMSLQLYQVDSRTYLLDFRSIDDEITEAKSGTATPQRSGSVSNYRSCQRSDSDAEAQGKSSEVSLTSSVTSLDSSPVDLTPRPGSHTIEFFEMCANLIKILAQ
Sequence of recombinant human AMPK complex 1 (containing α1β1γ1) (Q9Y478 whole entry): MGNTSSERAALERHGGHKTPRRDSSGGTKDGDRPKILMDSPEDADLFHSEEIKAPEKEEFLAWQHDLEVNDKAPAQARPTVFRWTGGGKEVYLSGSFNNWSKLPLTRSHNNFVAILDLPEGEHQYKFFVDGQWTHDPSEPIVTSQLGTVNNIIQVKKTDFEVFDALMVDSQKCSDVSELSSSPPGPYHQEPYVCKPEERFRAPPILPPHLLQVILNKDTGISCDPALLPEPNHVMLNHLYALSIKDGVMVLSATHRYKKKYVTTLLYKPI
Sequence of recombinant human AMPK complex 1 (containing α1β1γ1) (P54619 whole entry partner): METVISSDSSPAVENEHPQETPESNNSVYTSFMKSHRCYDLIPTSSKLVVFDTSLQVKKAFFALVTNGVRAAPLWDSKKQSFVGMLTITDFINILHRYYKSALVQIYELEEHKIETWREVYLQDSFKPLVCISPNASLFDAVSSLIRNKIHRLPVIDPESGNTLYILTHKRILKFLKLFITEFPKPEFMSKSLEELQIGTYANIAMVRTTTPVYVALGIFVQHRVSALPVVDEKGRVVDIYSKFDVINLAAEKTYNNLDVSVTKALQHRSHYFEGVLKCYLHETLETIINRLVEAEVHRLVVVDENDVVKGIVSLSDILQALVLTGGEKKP

| Structure (SMILES) | Emax [1] [%] | also measured |
| --- | --- | --- |
| NC(=O)c1ncn([C@@H]2O[C@H](CO)[C@@H](O)[C@H]2O)c1N [AICAR] | – | blood glucose reduction (ob/ob and db/db mice): 35% |
| O=C(O)CSc1nc2cc(C#Cc3cccs3)c(Cl)cc2[nH]1 [Example 38, (6-chloro-5-thiophen-2-yl-ethynyl-1H-benzo-imidazol-2-yl-sulfanyl)-acetic acid] | > 40 | – |
| COc1ccc(C#Cc2cc3nc(SCC(=O)O)[nH]c3cc2Cl)cc1 [Example 39, [6-chloro-5-(4-methoxy-phenyl-ethynyl)-1H-benzimidazol-2-ylsulfanyl]-acetic acid] | > 40 | – |
| O=C(O)CSc1nc2cc(-c3ccc(OCc4ccccc4)c(F)c3)c(Cl)cc2[nH]1 [Example 40, [5-(4-Benzyloxy-3-fluoro-phenyl)-6-chloro-1H-benzimidazol-2-ylsulfanyl]-acetic acid] | > 40 | – |
| O=C(O)CSc1nc2cc(-c3ccc(Cl)cc3)c(Cl)cc2[nH]1 [Example 41, [6-chloro-5-(4-chloro-phenyl)-1H-benzimidazol-2-ylsulfanyl]-acetic acid] | > 40 | – |
| COc1ccc(-c2cc3nc(SCC(=O)O)[nH]c3cc2Cl)cc1 [Example 42, [6-chloro-5-(4-methoxy-phenyl)-1H-benzimidazol-2-ylsulfanyl]-acetic acid] | > 40 | – |
| CC(C)Cc1ccc(-c2cc3nc(SCC(=O)O)[nH]c3cc2Cl)cc1 [Example 43, [6-chloro-5-(4-isobutyl-phenyl)-1H-benzimidazol-2-ylsulfanyl]-acetic acid] | > 40 | – |
| O=C(O)CSc1nc2cc(-c3ccc(OCc4ccccc4)cc3)c(Cl)cc2[nH]1 [Example 44, [5-(4-benzyl-oxy-phenyl)-6-chloro-1H-benzimidazol-2-ylsulfanyl]-acetic acid] | > 40 | – |
| O=C(O)COc1nc2cc(-c3ccc(-c4ccn[nH]4)cc3)c(Cl)cc2[nH]1 [Example 45, {6-Chloro-5-[4-(2H-pyrazol-3-yl)-phenyl]-1H-benzoimidazol-2-yloxy}-acetic acid] | – | EC50 [1]: 160 nM |
| O=C(O)COc1nc2cc(-c3ccc(-c4ccccc4)cc3)c(Cl)cc2[nH]1 [Example 46, [(5-biphenyl-4-yl-6-chloro-1H-benzimidazol-2-yl)oxy]ylacetic acid] | – | EC50 [1]: 128 nM |
| O=C(O)COc1nc2cc(C#Cc3ccc(CO)cc3)c(Cl)cc2[nH]1 [Example 47] | – | EC50 [1]: 97 nM |
| O=C(O)COc1nc2cc(C#Cc3ccccc3)c(Cl)cc2[nH]1 [Example 48, (6-Chloro-5-phenylethynyl-1H-benzoimidazol-2-yloxy)-acetic acid] | – | EC50 [1]: 130 nM |
| CC(C)(COc1nc2cc(C#Cc3ccccc3)c(Cl)cc2[nH]1)C(=O)O [Example 49, 3-(6-Chloro-5-phenylethynyl-1H-benzoimidazol-2-yloxy)-2,2-dimethyl-propionic acid] | > 40 | – |
| O=C(O)CCc1nc2cc(-c3ccccc3)c(Cl)cc2[nH]1 [Example 50, 3-(6-Chloro-5-phenyl-1H-benzimidazol-2-yl)-propionic acid] | > 40 | – |
| O=C(O)CCc1nc2cc(-c3ccc(-c4ccccc4)cc3)c(Cl)cc2[nH]1 [Example 51, 3-(5-Biphenyl-4-yl-6-chloro-1H-benzimidazol-2-yl)-propionic acid] | > 40 | – |
| O=C(O)CSc1nc2cc(C#Cc3cccnc3)c(Cl)cc2[nH]1 [Example 56] | > 40 | – |
| O=C(O)CSc1nc2cc(C#Cc3ccccn3)c(Cl)cc2[nH]1 [Example 57] | > 40 | – |
| O=C(O)CSc1nc2cc(-c3ccc(-c4ccccc4)s3)c(Cl)cc2[nH]1 [Example 58] | > 40 | – |
| Cn1ccc2cc(-c3cc4nc(SCC(=O)O)[nH]c4cc3Cl)ccc21 [Example 59] | – | EC50 [1]: 100 nM |
| O=C(O)CSc1nc2cc(-c3ccc(N4CCCCC4)cc3)c(Cl)cc2[nH]1 [Example 60] | > 40 | – |
| O=C(O)CSc1nc2cc(-c3ccc(N4CCOCC4)cc3)c(Cl)cc2[nH]1 [Example 61] | > 40 | – |
| O=C(O)CSc1nc2cc(-c3ccc(N4CCOCC4)nc3)c(Cl)cc2[nH]1 [Example 62] | > 40 | – |

| Structure (SMILES) | Emax [1] [%] | also measured |
| --- | --- | --- |
| O=C(O)CSc1nc2cc(-c3cc4ccccc4s3)c(Cl)cc2[nH]1 [Example 63] | > 40 | – |
| O=C(O)CSc1nc2cc(C#Cc3ccc(C(F)(F)F)cc3)c(Cl)cc2[nH]1 [Example 65] | > 40 | – |
| O=C(O)CSc1nc2cc(-c3ccc4[nH]ccc4c3)c(Cl)cc2[nH]1 [Example 66] | – | EC50 [1]: 282 nM |
| O=C(O)CSc1nc2cc(C#Cc3ccc(Cl)cc3)c(Cl)cc2[nH]1 [Example 67] | > 40 | – |
| O=C(O)CSc1nc2cc(C#Cc3ccc(Br)cc3)c(Cl)cc2[nH]1 [Example 68] | > 40 | – |
| O=C(O)CSc1nc2cc(C#Cc3cc(F)cc(F)c3)c(Cl)cc2[nH]1 [Example 69] | > 40 | – |
| O=C(O)CSc1nc2cc(C#Cc3ccccc3[N+](=O)[O-])c(Cl)cc2[nH]1 [Example 70] | > 40 | – |
| O=C(O)CSc1nc2cc(-c3cccc(N4CCOCC4)n3)c(Cl)cc2[nH]1 [Example 71] | > 40 | – |
| O=C(O)CSc1nc2cc(-c3csc(-c4ccccc4)n3)c(Cl)cc2[nH]1 [Example 72] | > 40 | – |
| O=C(O)CSc1nc2cc(-c3ccc(-c4cnccn4)cc3)c(Cl)cc2[nH]1 [Example 73] | > 40 | – |
| CCc1ccc(C(=O)Cc2cc3nc(SCC(=O)O)[nH]c3cc2Cl)cc1 [Example 74] | > 40 | – |
| O=C(O)CSc1nc2cc(C#Cc3ccc(C(=O)O)cc3)c(Cl)cc2[nH]1 [Example 75] | > 40 | – |
| CC(=O)Nc1ccc(C#Cc2cc3nc(SCC(=O)O)[nH]c3cc2Cl)cc1 [Example 76] | > 40 | – |
| CS(=O)(=O)Nc1ccc(C#Cc2cc3nc(SCC(=O)O)[nH]c3cc2Cl)cc1 [Example 77] | > 40 | – |
| CCNC(=O)Nc1ccc(C#Cc2cc3nc(SCC(=O)O)[nH]c3cc2Cl)cc1 [Example 78] | > 40 | – |
| O=C(O)CSc1nc2cc(-c3ccc(Br)cc3)c(Cl)cc2[nH]1 [Example 79] | > 40 | – |
| O=C(O)CSc1nc2cc(-c3ccc(C(F)(F)F)cc3)c(Cl)cc2[nH]1 [Example 81] | > 40 | – |
| CN(C)C(=O)c1ccc(C#Cc2cc3nc(SCC(=O)O)[nH]c3cc2Cl)cc1 [Example 82] | > 40 | – |
| CNC(=O)c1ccc(C#Cc2cc3nc(SCC(=O)O)[nH]c3cc2Cl)cc1 [Example 83] | > 40 | – |
| CSc1ccc(-c2cc3nc(SCC(=O)O)[nH]c3cc2Cl)cc1 [Example 84] | > 40 | – |
| Cc1cc(-c2cc3nc(SCC(=O)O)[nH]c3cc2Cl)ccc1Cl [Example 85] | > 40 | – |
| C[S+]([O-])c1ccc(-c2cc3nc(SCC(=O)O)[nH]c3cc2Cl)cc1 (centres unmarked) [Example 86] | > 40 | – |

— patent US8563746B2, “Cyclic benzimidazole derivatives useful as anti-diabetic agents” (Merck Sharp & Dohme Corp, priority 2008, dated 2013)
